In ChEMBL document CHEMBL5380808, “Design, Synthesis, and Biological Activity of Marinacarboline Analogues as STAT3 Pathway Inhibitors for Docetaxel-Resistant Triple-Negative Breast Cancer” (J Med Chem, 2023):
The source made the active and inactive calls. No cut-off for these calls is given here.

How the values were obtained:
MDA-MB-231 [1] = assay: Induction of cell cycle arrest at G2/M phase in docetaxel-resistant human MDA-MB-231-DTR cells assessed as downregulation of c-Myc expression level at 2.5 to 10 uM incubated for 36 hrs by Western blot analysis; type: functional, cell-based; conditions: dose 2.5-10 µM
MDA-MB-231 [2] = assay: Inhibition of cell migration in docetaxel-resistant human MDA-MB-231-DTR cells assessed as downregulation of Snail expression level at 3 to 6 uM incubated for 24 hrs by Western blot analysis; type: functional, cell-based; conditions: dose 3-6 µM
[3] = Induction of cell cycle arrest in docetaxel-resistant human MDA-MB-231-DTR cells assessed as accumulation at subG1 phase at 5 uM incubated for 36 hrs by PI staining based flow cytometry analysis (reference value: 0.52%); type: functional
[4] = Induction of cell cycle arrest in docetaxel-resistant human MDA-MB-231-DTR cells assessed as accumulation at G2/M phase at 5 uM incubated for 36 hrs by PI staining based flow cytometry analysis (reference value: 13.54%); type: functional
[5] = Induction of cell cycle arrest in docetaxel-resistant human MDA-MB-231-DTR cells assessed as accumulation at G0/G1 phase at 5 uM incubated for 36 hrs by PI staining based flow cytometry analysis (reference value: 75.49%); type: functional
[6] = Induction of cell cycle arrest in docetaxel-resistant human MDA-MB-231-DTR cells assessed as accumulation at S phase at 5 uM incubated for 12 hrs by PI staining based flow cytometry analysis (reference value: 10.56%); type: functional
[7] = target: T1, Signal transducer and activator of transcription 5A (Homo sapiens) (UniProt P42229); assay: Inhibition of STAT5 phosphorylation at Y694 residue in docetaxel-resistant human MDA-MB-231-DTR cells assessed as decrease in phosphorylated STAT5 level at 2.5 to 10 uM incubated for 24 hrs by Western blot analysis; type: cell-based; conditions: dose 2.5-10 µM
T1 sequence (whole entry): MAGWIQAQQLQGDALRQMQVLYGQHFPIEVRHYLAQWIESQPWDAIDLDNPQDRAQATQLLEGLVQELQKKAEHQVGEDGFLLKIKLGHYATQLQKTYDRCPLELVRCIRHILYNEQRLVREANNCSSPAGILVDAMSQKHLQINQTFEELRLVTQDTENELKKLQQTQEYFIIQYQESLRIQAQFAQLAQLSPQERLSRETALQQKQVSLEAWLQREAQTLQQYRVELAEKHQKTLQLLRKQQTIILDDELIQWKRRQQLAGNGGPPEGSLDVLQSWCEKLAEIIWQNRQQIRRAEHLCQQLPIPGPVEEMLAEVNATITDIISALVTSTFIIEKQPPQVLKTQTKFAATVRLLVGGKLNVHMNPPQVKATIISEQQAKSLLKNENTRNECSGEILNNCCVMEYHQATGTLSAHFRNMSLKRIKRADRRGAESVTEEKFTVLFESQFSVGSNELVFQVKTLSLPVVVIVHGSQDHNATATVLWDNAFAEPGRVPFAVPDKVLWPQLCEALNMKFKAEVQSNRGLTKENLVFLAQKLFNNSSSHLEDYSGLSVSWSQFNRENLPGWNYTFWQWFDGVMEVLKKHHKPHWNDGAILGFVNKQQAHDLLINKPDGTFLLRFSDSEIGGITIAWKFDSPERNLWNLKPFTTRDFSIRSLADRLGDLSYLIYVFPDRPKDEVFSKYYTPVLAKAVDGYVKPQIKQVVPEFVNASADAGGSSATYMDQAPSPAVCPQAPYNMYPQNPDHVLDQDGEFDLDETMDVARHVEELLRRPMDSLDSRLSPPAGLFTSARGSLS

[8] = Induction of cell cycle arrest in docetaxel-resistant human MDA-MB-231-DTR cells assessed as accumulation at subG1 phase at 5 uM incubated for 36 hrs by PI staining based flow cytometry analysis (reference value: 0.41%); type: functional
[9] = Selectivity index, ratio of IC50 for cytotoxicity against human MRC5 cells to IC50 for antiproliferative activity against human MDA-MB-231 cells; type: toxicity, cell-based; conditions: MRC5 cells and MDA-MB-231 cells, read-out: Ratio IC50
[10] = Induction of cell cycle arrest in docetaxel-resistant human MDA-MB-231-DTR cells assessed as accumulation at S phase at 5 uM incubated for 36 hrs by PI staining based flow cytometry analysis (reference value: 11.57%); type: functional
[11] = Induction of cell cycle arrest in docetaxel-resistant human MDA-MB-231-DTR cells assessed as accumulation at G0/G1 phase at 2.5 uM incubated for 36 hrs by PI staining based flow cytometry analysis (reference value: 74.77%); type: functional
[12] = Induction of cell cycle arrest in docetaxel-resistant human MDA-MB-231-DTR cells assessed as accumulation at G0/G1 phase at 5 uM incubated for 24 hrs by PI staining based flow cytometry analysis (reference value: 75.49%); type: functional
MDA-MB-231 [13] = assay: Antitumor activity against docetaxel-resistant human MDA-MB-231-DTR cells xenografted in BALB/c mouse assessed as upregulation of E-cadherin level in tumor tissue at 10 mg/kg, ip daily for 12 days by Immunohistochemical analysis; type: functional, organism-based; conditions: time 12.0 day
MDA-MB-231 [14] = assay: Inhibition of cell migration in docetaxel-resistant human MDA-MB-231-DTR cells assessed as upregulation of E-cadherin expression level at 3 to 6 uM incubated for 24 hrs by Western blot analysis; type: functional, cell-based; conditions: dose 3-6 µM
[15] = Induction of cell cycle arrest in docetaxel-resistant human MDA-MB-231-DTR cells assessed as accumulation at G0/G1 phase at 5 uM incubated for 48 hrs by PI staining based flow cytometry analysis (reference value: 75.49%); type: functional
[16] = Induction of cell cycle arrest in docetaxel-resistant human MDA-MB-231-DTR cells assessed as accumulation at subG1 phase at 2.5 uM incubated for 36 hrs by PI staining based flow cytometry analysis (reference value: 0.52%); type: functional
[17] = Induction of cell cycle arrest in docetaxel-resistant human MDA-MB-231-DTR cells assessed as accumulation at subG1 phase at 10 uM incubated for 36 hrs by PI staining based flow cytometry analysis (reference value: 0.52%); type: functional
MDA-MB-231 [18] = assay: Antiproliferative activity against human MDA-MB-231 cells assessed as reduction in cell viability incubated for 72 hrs by MTT assay; type: functional, cell-based; conditions: MDA-MB-231, 72 h
[19] = Induction of cell cycle arrest in docetaxel-resistant human MDA-MB-231-DTR cells assessed as accumulation at S phase at 10 uM incubated for 36 hrs by PI staining based flow cytometry analysis (reference value: 11.57%); type: functional
[20] = Induction of apoptosis in docetaxel-resistant human MDA-MB-231-DTR cells assessed as increase in total cell death at 10 uM incubated for 48 hrs by Annexin V-FITC and PI staining based flow cytometry; type: functional
[21] = Induction of cell cycle arrest in docetaxel-resistant human MDA-MB-231-DTR cells assessed as accumulation at S phase at 5 uM incubated for 24 hrs by PI staining based flow cytometry analysis (reference value: 10.56%); type: functional

O=C(NCCc1c[nH]c2ccccc12)c1cc2c([nH]c3ccccc32)c(C(=O)c2ccc(Br)cc2)n1
Activity (MDA-MB-231 [1]): Active
inhibition (MDA-MB-231 [2]): Active
Activity [3]: 1.81%
Activity [4]: 26.59%
Activity [5]: 55.56%
Activity [6]: 12.14%
inhibition [7]: inactive
Activity [8]: 4.35%
selectivity ratio [9]: 10.7
Activity [10]: 20.82%
Activity [11]: 62.36%
Activity [12]: 82.18%
Activity (MDA-MB-231 [13]): Active
inhibition (MDA-MB-231 [14]): Active
Activity [15]: 48.08%
Activity [16]: 0.57%
Activity [17]: 2.51%
IC50 (MDA-MB-231 [18]): 2980 nM
Activity [19]: 18.42%
Activity [20]: 61.85%
Activity [21]: 18.28%
